Our source for the IC50 values is patent US20090304692A1, “TRIAZINE COMPOUNDS AS PI3 KINASE AND MTOR INHIBITORS” (Wyeth, priority 2008, published 2009).

For one test, the target named is PI3K-γ (Homo sapiens, UniProt P48736). Kind of test: PI3K-gamma fluorescence polarization assay. The conditions noted are these: read-out: IC50 PI3Kγ.
The test system of test [1] is human prostate PC3-mm2 tumor cell line. Kind of test: In vitro cell culture growth assay (MTS), PC3-mm2. The test is classed as cell-based.
Test [2] concerns human breast MDA-MB-361 tumor cell line. Kind of test: In vitro cell culture growth assay (MTS), MDA-MB-361. It counts as cell-based.
A further test concerns the target PI3K-α (Homo sapiens, UniProt P42336). Description: PI3K-alpha fluorescence polarization assay. To be noted: read-out: IC50 PI3Kα. (Polarisation of emitted light reports the rotation of a fluorescent probe.)
Another test deals with Human mTOR (FLAG-TOR) (Homo sapiens, UniProt P42345). Description: mTOR kinase assay (DELFIA format, purified enzyme). To be noted: read-out: IC50 mTOR. It counts as biochemical.
Sequence of Human mTOR (FLAG-TOR) (P42345 1360-2549 limits assumed): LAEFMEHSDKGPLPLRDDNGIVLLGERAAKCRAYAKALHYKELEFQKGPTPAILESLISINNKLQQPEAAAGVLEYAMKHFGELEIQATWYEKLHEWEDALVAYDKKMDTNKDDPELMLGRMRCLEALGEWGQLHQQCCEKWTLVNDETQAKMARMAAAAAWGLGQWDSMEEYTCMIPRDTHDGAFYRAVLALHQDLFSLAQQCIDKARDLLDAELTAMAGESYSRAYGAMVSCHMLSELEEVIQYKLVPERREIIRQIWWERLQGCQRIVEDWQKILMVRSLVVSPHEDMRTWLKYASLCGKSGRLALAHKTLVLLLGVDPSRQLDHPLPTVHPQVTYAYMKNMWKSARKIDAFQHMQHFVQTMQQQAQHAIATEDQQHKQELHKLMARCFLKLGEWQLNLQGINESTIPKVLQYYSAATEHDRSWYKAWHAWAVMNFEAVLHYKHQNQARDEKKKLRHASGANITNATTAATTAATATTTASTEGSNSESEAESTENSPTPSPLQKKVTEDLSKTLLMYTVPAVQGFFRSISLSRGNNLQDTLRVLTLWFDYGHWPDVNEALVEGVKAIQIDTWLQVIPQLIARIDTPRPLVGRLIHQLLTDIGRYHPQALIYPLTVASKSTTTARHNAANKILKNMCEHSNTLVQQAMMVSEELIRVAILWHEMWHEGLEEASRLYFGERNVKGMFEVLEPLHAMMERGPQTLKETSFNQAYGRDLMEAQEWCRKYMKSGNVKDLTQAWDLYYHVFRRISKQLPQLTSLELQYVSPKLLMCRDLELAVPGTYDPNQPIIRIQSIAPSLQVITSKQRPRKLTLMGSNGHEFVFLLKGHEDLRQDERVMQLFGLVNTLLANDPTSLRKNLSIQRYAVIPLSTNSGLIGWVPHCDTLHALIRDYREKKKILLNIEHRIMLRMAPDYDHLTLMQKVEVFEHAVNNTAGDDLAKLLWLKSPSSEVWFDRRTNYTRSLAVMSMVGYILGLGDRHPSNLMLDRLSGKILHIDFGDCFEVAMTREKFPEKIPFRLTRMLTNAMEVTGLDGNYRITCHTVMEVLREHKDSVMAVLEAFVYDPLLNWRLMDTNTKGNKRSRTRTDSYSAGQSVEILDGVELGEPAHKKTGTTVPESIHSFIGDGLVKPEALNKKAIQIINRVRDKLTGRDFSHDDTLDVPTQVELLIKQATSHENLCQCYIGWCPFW
[3] abbreviates: MTS cell growth assay, three days after drug treatment, PC3-mm2 cells, read-out: IC50 PC3-mm2.
Setting [4] is: MTS cell growth assay, three days after drug treatment, MDA-MB-361 cells, read-out: IC50 MDA-MB-361.
Setting [5] is: Homo sapiens, PC3MM2, 72 h, MTS cell growth assay, three days after drug treatment, read-out: IC50 PC3-mm2.
[6] abbreviates: Homo sapiens, MDA-MB-361, 72 h, MTS cell growth assay, three days after drug treatment, read-out: IC50 MDA-MB-361.
[7] abbreviates: Homo sapiens, PC3MM2, 72 h, MTS cell growth assay, three days after drug treatment, PC3-mm2 cells, read-out: IC50 PC3-mm2.
Where [8] appears, read: Homo sapiens, MDA-MB-361, 72 h, MTS cell growth assay, three days after drug treatment, MDA-MB-361 cells, read-out: IC50 MDA-MB-361.
[9] abbreviates: Homo sapiens, PC3MM2, 72 h, read-out: IC50 PC3-mm2.
The mark [10] stands for this setting: Homo sapiens, MDA-MB-361, 72 h, read-out: IC50 MDA-MB-361.
Where [11] appears, read: Homo sapiens, 72 h, MTS cell growth assay, three days after drug treatment, MDA-MB-361 cells, read-out: IC50 MDA-MB-361.

Read-outs that look alike come from different tables or passages of the source.

What is called IC50 is the concentration that gives 50% inhibition.

Sequence of PI3K-γ (P48736 whole entry, species assumed): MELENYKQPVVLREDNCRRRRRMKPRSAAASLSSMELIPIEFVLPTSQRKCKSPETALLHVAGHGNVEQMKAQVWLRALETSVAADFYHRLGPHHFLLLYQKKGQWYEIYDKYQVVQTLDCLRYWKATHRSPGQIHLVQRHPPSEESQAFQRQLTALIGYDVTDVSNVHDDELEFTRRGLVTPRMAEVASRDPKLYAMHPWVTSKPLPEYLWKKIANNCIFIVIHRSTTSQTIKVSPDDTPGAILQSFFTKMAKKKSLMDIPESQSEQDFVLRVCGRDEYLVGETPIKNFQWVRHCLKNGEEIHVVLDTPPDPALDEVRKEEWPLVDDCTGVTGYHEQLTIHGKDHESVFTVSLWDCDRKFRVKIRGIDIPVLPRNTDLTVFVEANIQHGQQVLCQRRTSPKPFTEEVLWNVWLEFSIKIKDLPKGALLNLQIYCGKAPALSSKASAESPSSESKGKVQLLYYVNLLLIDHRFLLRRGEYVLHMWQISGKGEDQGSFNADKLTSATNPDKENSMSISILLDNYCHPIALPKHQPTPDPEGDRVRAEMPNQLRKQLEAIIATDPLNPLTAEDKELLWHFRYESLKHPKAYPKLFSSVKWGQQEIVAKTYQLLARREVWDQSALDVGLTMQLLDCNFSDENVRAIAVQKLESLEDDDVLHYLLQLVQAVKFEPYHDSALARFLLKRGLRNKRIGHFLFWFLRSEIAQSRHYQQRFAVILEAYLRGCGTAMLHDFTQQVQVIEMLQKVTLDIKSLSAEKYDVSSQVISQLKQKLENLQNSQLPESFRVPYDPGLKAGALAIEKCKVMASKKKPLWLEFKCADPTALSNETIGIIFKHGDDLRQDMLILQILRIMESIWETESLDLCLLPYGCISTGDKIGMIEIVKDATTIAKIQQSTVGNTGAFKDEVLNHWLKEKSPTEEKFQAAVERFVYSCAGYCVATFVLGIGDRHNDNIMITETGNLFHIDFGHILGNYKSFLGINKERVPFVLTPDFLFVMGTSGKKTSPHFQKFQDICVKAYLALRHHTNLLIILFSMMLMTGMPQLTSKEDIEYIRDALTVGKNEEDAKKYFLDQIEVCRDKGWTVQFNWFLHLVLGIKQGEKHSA
Sequence of PI3K-α (P42336 whole entry, species assumed): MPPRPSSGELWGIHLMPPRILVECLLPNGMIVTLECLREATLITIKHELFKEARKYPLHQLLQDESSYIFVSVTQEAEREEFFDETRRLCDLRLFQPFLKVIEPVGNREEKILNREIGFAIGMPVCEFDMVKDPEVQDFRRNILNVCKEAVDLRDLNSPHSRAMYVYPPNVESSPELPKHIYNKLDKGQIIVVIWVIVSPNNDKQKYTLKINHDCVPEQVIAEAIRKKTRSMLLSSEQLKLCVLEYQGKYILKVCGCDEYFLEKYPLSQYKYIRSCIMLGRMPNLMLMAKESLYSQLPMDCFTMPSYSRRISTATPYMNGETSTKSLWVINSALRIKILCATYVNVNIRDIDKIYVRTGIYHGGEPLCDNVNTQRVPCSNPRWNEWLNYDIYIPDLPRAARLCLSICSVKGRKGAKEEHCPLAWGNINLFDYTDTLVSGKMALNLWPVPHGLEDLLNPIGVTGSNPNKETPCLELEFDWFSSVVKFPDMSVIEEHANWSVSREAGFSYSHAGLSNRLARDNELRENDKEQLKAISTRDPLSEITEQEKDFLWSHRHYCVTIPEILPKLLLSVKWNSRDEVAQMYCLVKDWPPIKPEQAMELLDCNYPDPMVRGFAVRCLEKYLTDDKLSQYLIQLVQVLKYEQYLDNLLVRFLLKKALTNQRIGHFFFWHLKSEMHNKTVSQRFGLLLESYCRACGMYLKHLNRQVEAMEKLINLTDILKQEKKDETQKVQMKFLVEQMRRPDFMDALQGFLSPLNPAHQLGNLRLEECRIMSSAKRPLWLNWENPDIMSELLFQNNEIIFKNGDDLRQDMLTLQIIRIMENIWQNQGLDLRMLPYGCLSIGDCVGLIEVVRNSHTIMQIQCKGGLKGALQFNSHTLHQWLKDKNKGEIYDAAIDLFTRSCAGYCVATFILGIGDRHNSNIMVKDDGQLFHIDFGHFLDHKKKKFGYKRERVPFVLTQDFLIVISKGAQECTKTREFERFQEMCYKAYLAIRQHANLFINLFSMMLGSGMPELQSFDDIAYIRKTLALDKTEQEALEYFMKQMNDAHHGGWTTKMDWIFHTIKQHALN
Sequence of PI3K-α (P27986 whole entry partner, species assumed): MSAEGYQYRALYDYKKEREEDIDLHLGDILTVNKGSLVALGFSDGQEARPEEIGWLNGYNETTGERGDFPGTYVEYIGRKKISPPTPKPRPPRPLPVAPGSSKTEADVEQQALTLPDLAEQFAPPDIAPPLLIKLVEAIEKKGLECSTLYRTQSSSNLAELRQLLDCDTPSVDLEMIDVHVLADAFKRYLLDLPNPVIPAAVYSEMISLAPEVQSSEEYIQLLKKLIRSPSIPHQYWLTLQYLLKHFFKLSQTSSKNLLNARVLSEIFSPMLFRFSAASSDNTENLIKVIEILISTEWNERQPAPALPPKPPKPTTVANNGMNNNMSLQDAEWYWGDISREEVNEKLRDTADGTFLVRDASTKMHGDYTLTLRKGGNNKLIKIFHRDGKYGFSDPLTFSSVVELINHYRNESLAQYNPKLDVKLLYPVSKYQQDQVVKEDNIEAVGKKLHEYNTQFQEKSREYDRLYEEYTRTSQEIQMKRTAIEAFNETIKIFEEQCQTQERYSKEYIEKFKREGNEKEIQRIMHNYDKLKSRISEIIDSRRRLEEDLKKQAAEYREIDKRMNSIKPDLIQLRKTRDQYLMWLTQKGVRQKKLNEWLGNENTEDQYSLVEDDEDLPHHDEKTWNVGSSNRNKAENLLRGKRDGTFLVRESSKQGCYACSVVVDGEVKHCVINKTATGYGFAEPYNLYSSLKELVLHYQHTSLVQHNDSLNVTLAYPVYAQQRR

With “1-(4-(4,6-dimorpholino-1,3,5-triazin-2-yl)phenyl)-3-(4-(2-(pyridin-2-yl)acetyl)phenyl)urea [Example 78]”, the IC50 on PI3K-γ was 23 nM; in test [1] (MTS cell growth assay, three days after drug treatment, read-out: IC50 PC3-mm2), 31 nM; in test [2] (MTS cell growth assay, three days after drug treatment, read-out: IC50 MDA-MB-361), 68 nM.
“1-(4-{[4-(1-methylethyl)piperazin-1-yl]carbonyl}phenyl)-3-[4-(4-morpholin-4-yl-6-piperidin-1-yl-1,3,5-triazin-2-yl)phenyl]urea [Example 595]”: the IC50 on PI3K-γ came out at 58.5 nM; in test [1] (setting [3]), 193 nM; in test [2] (setting [4]), 43 nM.
Regarding “4-yl-6-(3-oxa-8-azabicyclo[3.2.1]oct-8-yl)-1,3,5-triazin-2-yl]phenyl}urea [Example 518]”, the IC50 at PI3K-γ was determined as 6.5 nM; in test [1] (setting [3]), 24 nM; on PI3K-α, 0.9 nM; in test [2] (setting [4]), 4 nM.
“4-{[(4-{4,6-bis[(3S)-3-methylmorpholin-4-yl]-1,3,5-triazin-2-yl}phenyl)carbamoyl]amino}-N-(2-pyrrolidin-1-ylethyl)benzamide [Example 635]”: the IC50 on PI3K-γ was determined as 378 nM; in test [1] (setting [3]) it was 106 nM; at PI3K-α, 22 nM; in test [2] (setting [4]), 26 nM.
In the case of “4-{[(4-{4-morpholin-4-yl-6-[(3S)-tetrahydrofuran-3-yloxy]-1,3,5-triazin-2-yl}phenyl)carbamoyl]amino}-N-(2-pyrrolidin-1-ylethyl)benzamide [Example 521]”, the IC50 in test [1] (setting [3]) came to 27 nM; on PI3K-α it was 1.4 nM; in test [2] (setting [4]), 8 nM.
For the compound `O=C(Nc1ccc(-c2nc(N3CCOCC3)nc(N3CCOCC3)n2)cc1)Nc1cccnc1` [Example 2, 1-[4-(4,6-dimorpholin-4-yl-1,3,5-triazin-2-yl)phenyl]-3-pyridin-3-ylurea], the IC50 in test [1] (setting [5]) was determined as 43 nM; on Human mTOR (FLAG-TOR), 1 nM; in test [2] (setting [6]) it was 45 nM.
For `O=C(Nc1ccc(-c2nc(N3CCOCC3)nc(N3CCOCC3)n2)cc1)Nc1cccs1` [Example 4, 1-[4-(4,6-dimorpholin-4-yl-1,3,5-triazin-2-yl)phenyl]-3-thiophen-2-ylurea], the values for the IC50 (in test [1] (setting [5]); at Human mTOR (FLAG-TOR); in test [2] (setting [6])) were 43 nM, 1.7 nM and 45 nM, respectively.
`O=C(Nc1ccc(-c2nc(N3CCOCC3)nc(N3CCOCC3)n2)cc1)Nc1ccc(F)cc1F` [Example 11, (2,4-difluorophenyl)-3-[4-(4,6-dimorpholin-4-yl-1,3,5-triazin-2-yl)phenyl]urea]: the IC50 worked out at 5630 nM in test [1] (Homo sapiens, PC3MM2, 72 h, read-out: IC50 PC3-mm2, MTS cell growth assay, three days after drug treatment); 9.25 nM at Human mTOR (FLAG-TOR); 794 nM in test [2] (Homo sapiens, MDA-MB-361, 72 h, read-out: IC50 MDA-MB-361, MTS cell growth assay, three days after drug treatment).
As to `CCN(CC)CCOC(=O)c1ccc(NC(=O)Nc2ccc(-c3nc(N4CCOCC4)nc(N4C5CCC4COC5)n3)cc2)cc1` [Example 40, 2-(diethylamino)ethyl 4-[({4-[4-morpholin-4-yl-6-(3-oxa-8-azabicyclo[3.2.1]oct-8-yl)-1,3,5-triazin-2-yl]phenyl}carbamoyl)amino]benzoate], the IC50 was 62 nM in test [1] (setting [7]); 62 nM in test [1] (setting [5]); 0.66 nM on Human mTOR (FLAG-TOR); less than 30 nM in test [2] (setting [8]); less than 30 nM in test [2] (setting [6]).
Turning to `C[C@H]1COCCN1c1nc(-c2ccc(NC(=O)Nc3ccc(CO)cc3)cc2)nc(N2CCOCC2)n1` [Example 91, 1-[4-(2-hydroxymethyl)phenyl]-3-(4-{4-[(3S)-3-methylmorpholin-4-yl]-6-morpholin-4-yl-1,3,5-triazin-2-yl}phenyl)urea], the IC50 on PI3K-γ is 73 nM; in test [1] (setting [5]), 1570 nM; on PI3K-α, 6 nM; in test [2] (setting [6]), 25 nM.
`CC(O)c1nc(-c2ccc(NC(=O)Nc3ccncc3)cc2)nc(N2CCOCC2)n1` (stereo not drawn) [Example 223, 1-{4-[4-(1-hydroxyethyl)-6-morpholin-4-yl-1,3,5-triazin-2-yl]phenyl}-3-pyridin-4-ylurea]: the IC50 at PI3K-γ worked out at 200 nM; in test [1] (setting [5]) it was 229 nM; at PI3K-α, 2 nM; in test [2] (setting [6]) it was 187 nM.
Take `CNCCN(C)C(=O)c1ccc(NC(=O)Nc2ccc(-c3nc(OC)nc(N4CCOCC4)n3)cc2)cc1` [Example 245, 4-({[4-(4-methoxy-6-morpholin-4-yl-1,3,5-triazin-2-yl)phenyl]carbamoyl}amino)-N-methyl-N-[2-(methylamino)ethyl]benzamide]: the IC50 in test [1] (setting [9]) is 374 nM; at PI3K-α, 1 nM; at PI3K-α (listed as 722), 0.8 nM; in test [2] (setting [10]), 110 nM.
Consider `COc1nc(-c2ccc(NC(=O)Nc3ccc(C(=O)N4CCNC(C)(C)C4)cc3)cc2)nc(N2CCOCC2)n1` [Example 247, 1-{4-[(3,3-dimethylpiperazin-1-yl)carbonyl]phenyl}-3-[4-(4-methoxy-6-morpholin-4-yl-1,3,5-triazin-2-yl)phenyl]urea], for which the IC50 in test [1] (setting [9]) was determined as 111 nM; at PI3K-α, 2 nM; at PI3K-α (listed as 724), 1.5 nM; in test [2] (setting [10]), 30 nM.
For `COc1nc(-c2ccc(NC(=O)Nc3ccc(C(=O)NCCN4CCCCC4)cc3)cc2)nc(N2CCOCC2)n1` [Example 248, 4-({[4-(4-methoxy-6-morpholin-4-yl-1,3,5-triazin-2-yl)phenyl]carbamoyl}amino)-N-(2-piperidin-1-ylethyl)benzamide], the results for the IC50 (in test [1] (setting [9]); on PI3K-α; in test [2] (setting [10])) were 69 nM, 2 nM and less than 31 nM, respectively.
On to `O=C(Nc1ccncc1)Nc1ccc(-c2nc(-c3ccccc3)nc(N3CCOCC3)n2)cc1` [Example 346, 1-[4-(4-morpholin-4-yl-6-phenyl-1,3,5-triazin-2-yl)phenyl]-3-pyridin-4-ylurea], for which the IC50 was 89 nM at PI3K-γ; less than 31 nM in test [1] (setting [7]); 43 nM at PI3K-α; 43.5 nM at PI3K-α (listed as 537); less than 31 nM in test [2] (setting [11]).
For the compound `CCN1CCN(C(=O)Nc2ccc(NC(=O)Nc3ccc(-c4nc(N5CCOCC5)nc(N5CCOCC5)n4)cc3)cc2)CC1` [Example 503, N-[4-({[4-(4,6-dimorpholin-4-yl-1,3,5-triazin-2-yl)phenyl]carbamoyl}amino)phenyl]-4-ethylpiperazine-1-carboxamide], the IC50 is 1.8 nM on PI3K-γ, 12.5 nM in test [1] (setting [7]), 0.5 nM at PI3K-α and 7.5 nM in test [2] (setting [11]).
`C[C@H]1COCCN1c1nc(-c2ccc(NC(=O)Nc3ccc(C(=O)N4CCCC4)cc3)cc2)nc(N2CCOC[C@@H]2C)n1` [Example 571, 1-(4-{4,6-bis[(3S)-3-methylmorpholin-4-yl]-1,3,5-triazin-2-yl}phenyl)-3-[4-(pyrrolidin-1-ylcarbonyl)phenyl]urea]: the IC50 on PI3K-γ worked out at 108 nM; in test [1] (setting [7]), 168 nM; on PI3K-α, 21 nM; in test [2] (setting [8]) it was 90 nM.
`CN(C)CCNC(=O)c1ccc(NC(=O)Nc2ccc(-c3nc(N4CCCOCC4)nc(N4CCOCC4)n3)cc2)cc1` [Example 572, N-[2-(dimethylamino)ethyl]-4-[({4-[4-morpholin-4-yl-6-(1,4-oxazepan-4-yl)-1,3,5-triazin-2-yl]phenyl}carbamoyl)amino]benzamide]: the IC50 was 15 nM at PI3K-γ, 56 nM in test [1] (setting [7]), 0.9 nM at PI3K-α and 13 nM in test [2] (setting [11]).
On to `C[C@H]1COCCN1c1nc(-c2ccc(NC(=O)Nc3ccc(C(=O)NCCN4CCCC4)cc3)cc2)nc(N2CCOCC2)n1` [Example 622, 4-{[(4-{4-[(3S)-3-methylmorpholin-4-yl]-6-morpholin-4-yl-1,3,5-triazin-2-yl}phenyl)carbamoyl]amino}-N-(2-pyrrolidin-1-ylethyl)benzamide], for which the IC50 came to 50.5 nM at PI3K-γ, 25 nM in test [1] (setting [7]), 3 nM at PI3K-α and 5 nM in test [2] (setting [11]).
With `C[C@@H]1COCCN1c1nc(-c2ccc(NC(=O)Nc3ccc(C(=O)NCCN(C)C)cc3)cc2)nc(N2CCOC[C@@H]2C)n1` [Example 634, N-[2-(dimethylamino)ethyl]-4-{[(4-{4-[(3R)-3-methylmorpholin-4-yl]-6-[(3S)-3-methylmorpholin-4-yl]-1,3,5-triazin-2-yl}phenyl)carbamoyl]amino}benzamide], the IC50 at PI3K-γ was 122 nM; in test [1] (setting [7]), 16 nM; on PI3K-α it was 6 nM; in test [2] (setting [11]), 5 nM.
With `CN1CCN(C(=O)c2ccc(NC(=O)Nc3ccc(-c4nc(N5CCOCC5)[nH]c(=O)n4)cc3)cc2)CC1` [Example 826, 1-{4-[(4-methylpiperazin-1-yl)carbonyl]phenyl}-3-[4-(6-morpholin-4-yl-4-oxo-4,5-dihydro-1,3,5-triazin-2-yl)phenyl]urea], the IC50 in test [1] (Homo sapiens, PC3MM2, 72 h, PC3-mm2 cells, MTS, three days after drug treatment, read-out: IC50 PC3-mm2) was greater than 1000 nM; on PI3K-α, 15 nM; in test [2] (setting [10]), greater than 1000 nM.
